The text below walks through data of ChEMBL document CHEMBL2390946, “Discovery of TAK-960: an orally available small molecule inhibitor of polo-like kinase 1 (PLK1)” (Bioorg Med Chem Lett, 2013).

Holding throughout (assay type): ADME, organism-based
Series [1] is described as follows: Clearance in rat at 1 mg/kg, iv and 5 mg/kg, po. To be noted: in vivo.
Series [2] can be described thus: Half life in rat at 1 mg/kg, iv and 5 mg/kg, po. To be noted: in vivo.
Series [3] is described as follows: Oral bioavailability in rat at 5 mg/kg. The note with it: in vivo.
The nature of series [4]: Volume of distribution at steady state in rat at 1 mg/kg, iv and 5 mg/kg, po. The note with it: in vivo, read-out: Vdss.

Usually half-life stands for the time in which the quantity being followed falls by half. High values mean slow decline, low ones rapid decline. What is called bioavailability is the share of a dose that reaches the circulation, judged against a reference dose that is usually intravenous. Low readings indicate little systemic uptake, high ones much systemic uptake. Turning to `COc1cc(C(=O)NC2CCN(C)CC2)ccc1Nc1ncc2c(n1)N(C1CCCC1)CC(F)(F)C(=O)N2C`, the clearance in series [1] came to 51 mL/min/kg. The half-life in series [2] is 3.3 h. In series [3], this molecule yielded a bioavailability of 11%. Besides, the Vd in series [4] stood at 19.6 L/kg.

Consider `COc1cc(C(=O)NC2CCN(C)CC2)c(F)cc1Nc1ncc2c(n1)N(C1CCCC1)CC(F)(F)C(=O)N2C` [TAK-960], for which, in series [1], the clearance was found to be 42 mL/min/kg. This molecule showed a half-life in series [2] of 5.4 h. Further, the bioavailability in series [3] is 54%. Besides, the Vd in series [4] is 13.7 L/kg.
